Patent US9783511B2, “Carbamate benzoxazine propionic acids and acid derivatives for modulation of RORgamma activity and the treatment of disease” (Merck Sharp & Dohme Corp., priority 2013, dated 2017)
pIC50: −log10 of the molar value.

Each molecule was assayed against human RORgammaT-Ligand Binding Domain (LBD) (Homo sapiens (Human), UniProt P51449) (assay: RORγ-Ligand Binding Domain TR-FRET Assay (co-activator peptide SRC1_2 recruitment)). Details: HIS-tagged RORγ-LBD 3 nM, biotinylated SRC1 LXXLL peptide 100 nM, incubated overnight at 4° C., 665 nm/615 nm ratio.
human RORgammaT-Ligand Binding Domain (LBD), sequence (P51449 269-508): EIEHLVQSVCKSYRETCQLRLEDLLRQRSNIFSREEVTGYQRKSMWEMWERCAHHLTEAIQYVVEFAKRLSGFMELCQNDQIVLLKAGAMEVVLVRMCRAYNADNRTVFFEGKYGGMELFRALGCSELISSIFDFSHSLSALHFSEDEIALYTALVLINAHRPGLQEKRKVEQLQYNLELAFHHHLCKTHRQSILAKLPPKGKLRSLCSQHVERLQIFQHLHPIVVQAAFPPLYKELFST
Type: biochemical
How it was run: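 E. coli-expressed, Ni2+-purified HIS-tagged human RORγ-LBD at 3 nM final in 50 mM Tris pH 7.0, 50 mM KCl, 1 mM EDTA, 0.1 mM DTT, 100 μg/mL delipidated BSA. TR-FRET read-out of SRC1_2 co-activator peptide recruitment; compounds dispensed acoustically.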
A pIC50 of 8.06 was found for `CC(C)(OC(=O)Nc1ccc2c(c1)N(S(=O)(=O)c1ccc(F)c(C(F)(F)F)c1)C[C@H]([C@@H]1C[C@H]1C(=O)O)O2)C(F)(F)F` [Example 22C, (1R,2R)-2-((S)-4-((4-fluoro-3-(trifluoromethyl)phenyl)sulfonyl)-6-((((1,1,1-trifluoro-2-methylpropan-2-yl)oxy)carbonyl)amino)-3,4-dihydro-2H-benzo[b][1,4]oxazin-2-yl)cyclopropanecarboxylic acid] in this work. A pIC50 of 8.23 was found for `CC(C)(OC(=O)Nc1ccc2c(c1)N(S(=O)(=O)c1ccc(F)c(C(F)(F)F)c1)C[C@H]([C@H]1C[C@@H]1C(=O)O)O2)C(F)(F)F` [Example 22D, (1S,2S)-2-((S)-4-((4-fluoro-3-(trifluoromethyl)phenyl)sulfonyl)-6-((((1,1,1-trifluoro-2-methylpropan-2-yl)oxy)carbonyl)amino)-3,4-dihydro-2H-benzo[b][1,4]oxazin-2-yl)cyclopropanecarboxylic acid] in this work. A pIC50 of 7.75 was found for `COc1cc(S(=O)(=O)N2C[C@H](CCC(=O)O)Oc3ccc(NC(=O)OCC4(C(F)(F)F)CC4)cc32)ccc1F` [Example 24A, 3-{(2S)-4-[(4-fluoro-3-methoxyphenyl)sulfonyl]-6-[({[1-(trifluoromethyl)cyclopropyl]methoxy}carbonyl)amino]-3,4-dihydro-2H-1,4-benzoxazin-2-yl}propanoic acid] in this work. A pIC50 of 7.92 was found for `COc1cc(S(=O)(=O)N2C[C@H](CCC(=O)O)Oc3ccc(NC(=O)OC4(C(F)(F)F)CCC4)cc32)ccc1F` [Example 24B, 3-{(2S)-4-[(4-fluoro-3-methoxyphenyl)sulfonyl]-6-[({[1-(trifluoromethyl)cyclobutyl]oxy}carbonyl)amino]-3,4-dihydro-2H-1,4-benzoxazin-2-yl}propanoic acid] in this work. A pIC50 of 8.00 was found for `C[C@@H]1[C@H](CCC(=O)O)Oc2ccc(NC(=O)OC(C)(C)C(F)(F)F)cc2N1S(=O)(=O)c1cccc(C(F)(F)F)c1` [Example 25, 3-((2S,3R)-3-methyl-6-((((1,1,1-trifluoro-2-methylpropan-2-yl)oxy)carbonyl)amino)-4-((3-(trifluoromethyl)phenyl)sulfonyl)-3,4-dihydro-2H-benzo[b][1,4]oxazin-2-yl)propanoic acid] in this work. A pIC50 of 5.09 was found for `COc1cc(S(=O)(=O)N2c3cc(NC(=O)OC(C)(C)C(F)(F)F)ccc3O[C@H](CC(C)(C)C(=O)O)[C@@H]2C)ccc1F` [Example 27A, 3-[(2R,3S)-4-[(4-fluoro-3-methoxyphenyl)sulfonyl]-3-methyl-6-{[(2,2,2-trifluoro-1,1-dimethylethoxy)carbonyl]ami-no}-3,4-dihydro-2H-1,4-benzoxazin-2-yl]-2,2-dimethylpropanoic acid] in this work. A pIC50 of 7.76 was found for `COc1cc(S(=O)(=O)N2c3cc(NC(=O)OC(C)(C)C(F)(F)F)ccc3O[C@@H](CC(C)(C)C(=O)O)[C@H]2C)ccc1F` [Example 27B, 3-[(2S,3R)-4-[(4-fluoro-3-methoxyphenyl)sulfonyl]-3-methyl-6-{[(2,2,2-trifluoro-1,1-dimethylethoxy)carbonyl]ami-no}-3,4-dihydro-2H-1,4-benzoxazin-2-yl]-2,2-dimethylpropanoic acid] in this work. A pIC50 of 7.99 was found for `CC(C)(OC(=O)Nc1cc(F)c2c(c1)N(S(=O)(=O)c1ccc(F)c(C(F)(F)F)c1)C[C@H](CCC(=O)O)O2)C(F)(F)F` [Example 28, (S)-3-(8-fluoro-4-((4-fluoro-3-(trifluoromethyl)phenyl)sulfonyl)-6-((((1,1,1-trifluoro-2-methylpropan-2-yl)oxy)carbonyl)amino)-3,4-dihydro-2H-benzo[b][1,4]oxazin-2-yl)propanoic acid] in this work. A pIC50 of 8.24 was found for `Cc1cc(S(=O)(=O)N2C[C@H](CCC(=O)O)Oc3c(F)cc(NC(=O)OC(C)(C)C(F)(F)F)cc32)ccc1F` [Example 29A, 3-[(2S)-8-fluoro-4-[(4-fluoro-3-methylphenyl)sulfonyl]-6-{[(2,2,2-trifluoro-1,1-dimethylethoxy)carbonyl]ami-no}-3,4-dihydro-2H-1,4-benzoxazin-2-yl]propanoic acid] in this work. A pIC50 of 8.41 was found for `COc1cc(S(=O)(=O)N2C[C@H](CCC(=O)O)Oc3c(F)cc(NC(=O)OC(C)(C)C(F)(F)F)cc32)ccc1F` [Example 29B, 3-[(2S)-8-fluoro-4-[(4-fluoro-3-methoxyphenyl)sulfonyl]-6-{[(2,2,2-trifluoro-1,1-dimethylethoxy)carbonyl]ami-no}-3,4-dihydro-2H-1,4-benzoxazin-2-yl]propanoic acid] in this work. A pIC50 of 8.01 was found for `CCn1cc(S(=O)(=O)N2C[C@H](CCC(=O)O)Oc3c(F)cc(NC(=O)OC(C)(C)C(F)(F)F)cc32)c(Cl)n1` [Example 29C, 3-[(2S)-4-[(3-chloro-1-ethyl-1H-pyrazol-4-yl)sulfonyl]-8-fluoro-6-{[(2,2,2-trifluoro-1,1-dimethylethoxy)carbonyl]ami-no}-3,4-dihydro-2H-1,4-benzoxazin-2-yl]propanoic acid] in this work. A pIC50 of 8.10 was found for `CCOc1nn(CC)cc1S(=O)(=O)N1C[C@H](CCC(=O)O)Oc2c(F)cc(NC(=O)OC(C)(C)C(F)(F)F)cc21` [Example 29D, 3-[(2S)-4-[(3-ethoxy-1-ethyl-1H-pyrazol-4-yl)sulfonyl]-8-fluoro-6-{[(2,2,2-trifluoro-1,1-dimethylethoxy)carbonyl]ami-no}-3,4-dihydro-2H-1,4-benzoxazin-2-yl]propanoic acid] in this work. A pIC50 of 7.99 was found for `CC(C)(OC(=O)Nc1cc(F)c2c(c1)N(S(=O)(=O)c1cccc(C(F)(F)F)c1)C[C@H](CCC(=O)O)O2)C(F)(F)F` [Example 29E, 3-[(2S)-8-fluoro-6-{[(2,2,2-trifluoro-1,1-dimethylethoxy)carbonyl]ami-no}-4-{[3-(trifluoromethyl)phenyl]sulfo-nyl}-3,4-dihydro-2H-1,4-benzoxazin-2-yl]propanoic acid] in this work. A pIC50 of 8.24 was found for `CC(C)(OC(=O)Nc1cc(F)c2c(c1)N(S(=O)(=O)c1ccc(F)c(Cl)c1)C[C@H](CCC(=O)O)O2)C(F)(F)F` [Example 29F, 3-[(2S)-4-[(3-chloro-4-fluorophenyl)sulfonyl]-8-fluoro-6-{[(2,2,2-trifluoro-1,1-dimethylethoxy)carbonyl]ami-no}-3,4-dihydro-2H-1,4-benzoxazin-2-yl]propanoic acid] in this work. A pIC50 of 8.00 was found for `CC(C)(OC(=O)Nc1cc(F)c2c(c1)N(S(=O)(=O)c1ccnc(C(F)(F)F)c1)C[C@H](CCC(=O)O)O2)C(F)(F)F` [Example 29H, 3-[(2S)-8-fluoro-6-{[(2,2,2-trifluoro-1,1-dimethylethoxy)carbonyl]ami-no}-4-{[2-(trifluoromethyl)pyridin-4-yl]sulfonyl}-3,4-dihydro-2H-1,4-benzoxazin-2-yl]propanoic acid] in this work. A pIC50 of 8.05 was found for `CC(C)(OC(=O)Nc1cc(F)c2c(c1)N(S(=O)(=O)c1cncc(C(F)(F)F)c1)C[C@H](CCC(=O)O)O2)C(F)(F)F` [Example 29i, 3-[(2S)-8-fluoro-6-{[(2,2,2-trifluoro-1,1-dimethylethoxy)carbonyl]ami-no}-4-{[5-(trifluoromethyl)pyridin-3-yl]sulfonyl}-3,4-dihydro-2H-1,4-benzoxazin-2-yl]propanoic acid] in this work.
